Assay [1] concerns the target biotinylated KRAS G12C protein (GMP-PNP loaded) and GST-tagged Ras binding domain of c-RAF (Homo sapiens, UniProt P01116, C118S/C51S/C80L/G12C). The assay can be described thus: RAS:RAF-RBD binding assay (TR-FRET). Format: biochemical. The conditions noted are these: 30-minute incubation with KRAS G12C, then RAF-RBD 60 minute.
Assay [2] deals with Gppcp-bound recombinant K-Ras4B G12C mutant protein (amino acids 1-169, C51S/C80L/C118S) (Homo sapiens, UniProt P01116, C118S/C51S/C80L/G12C). The assay can be described thus: KRASG12C binding assay (LC-MS, compound binding rate). The conditions noted are these: test compound final concentration 0.5 μM, 25° C., 1 hour. The essentials:
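Covalent adduct formation measured by deconvoluted intact-mass LC-MS after 1 h at 25 °C with compound at 0.5 μM final and 50 nM Gppcp-loaded KRAS G12C (residues 1-169, C51S/C80L/C118S). Buffer: TBS, 0.1 mM TCEP, 0.25 mM MgCl2, 50 μM Gppcp. Binding % = one-molecule adduct/(unbound + all adducts), binned A ≥80, B 60–80, C 40–60, D 20–40, E <20.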

The target of assay [3] is T1, interaction between recombinant K-Ras4B G12C mutant protein and cRAF RAS-binding domain (cRAF-RBD) (Homo sapiens, UniProt P01116, G12C).
T1 construct: made in house; host or cells: E. coli
The assay can be described thus: Inhibitory activity on interaction between KRAS G12C and cRAF (Alpha technology). It counts as biochemical. The conditions noted are these: GMPPNP-bound KRAS G12C incubated with compound at 25° C. for 1 hour, then cRAF-RBD; Alpha signal. The gist of the method: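 Alpha readout of cRAF-RBD (aa 50-132) binding to KRAS G12C (aa 1-169) after 1.5 h RT, following 1 h, 25° C compound preincubation with GMPPNP-bound protein (pH 7.5 Tris, 1 mM MgCl2, TCEP, Tween 20). IC50 fitted from titrations, with GDP-bound KRAS as 100% and DMSO as 0% inhibition.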

In a further assay the test system is MIA PaCa-2 cells. The assay can be described thus: Growth inhibition activity on KRAS-G12C mutant cell line (MIA PaCa-2), CellTiter-Glo 3D. The conditions noted are these: MIA PaCa-2, 3-day culture with compound. It counts as cell-based, human. The essentials: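 Luminescence readout (CellTiter-Glo 3D) after 3 days of compound treatment at 37 °C, 5% CO2, 0.2% final DMSO, gave % growth inhibition versus no-compound wells, from which IC50 (nM) was derived; cells had been plated in 10% FBS RPMI1640 one day before dosing.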
(In ATP-based viability assays light output follows the ATP content of the culture.)

Structures are written as SMILES.

By IC50 is commonly meant the midpoint of a concentration-inhibition curve.

For the compound `Cc1nc2c(Cl)c(-c3cccn4c(C(=O)c5cc(F)c(NC(=O)/C=C/CN(C)C)c(F)c5)ccc34)c(C(F)(F)F)cc2n1C` [Example 128, mono((E)-4-chloro-5-(3-(4-(4-(dimethylammonio)but-2-enamido)-3,5-difluorobenzoyl)indolizin-8-yl)-1,2-dimethyl-6-(trifluoromethyl)-1H-benzo[d]imidazol-3-ium) mono(2,2,2-trifluoroacetate)], the IC50 in assay [1] is 159 nM.
Still for that read-out and setting: to `COc1c(-c2cccc3c2ccn3C(=O)c2cc(F)c(NC(=O)/C=C/CN[C@H]3CCOC3)c(F)c2)c(C(F)(F)F)cc2c1nc(C)n2C` (single isomer, unassigned) [Example 116, mono(2,2,2-trifluoroacetate)] belongs 14.8 nM; to `Cc1nc2c(Cl)c(-c3cccn4c(C(=O)c5cc(F)c(NC(=O)/C=C/CNC6(C)CCOC6)c(F)c5)ccc34)c(C(F)(F)F)cc2n1C` (single isomer, unassigned) [Example 131a, (E)-N-(4-(8-(4-chloro-1,2-dimethyl-6-(trifluoromethyl)-1H-benzo[d]imidazol-5-yl)indolizine-3-carbonyl)-2,6-difluorophenyl)-4-((3-methyltetrahydrofuran-3-yl)amino)but-2-enamide], 13.4 nM.
In the case of `CO[C@H]1CC[C@H](NC/C=C/C(=O)Nc2c(F)cc(C(=O)c3cc(C(N)=O)c4c(-c5c(C)cc6c(nc(C)n6C)c5Cl)cccn34)cc2F)CC1` [Example 107, 8-(4-chloro-1,2,6-trimethyl-1H-benzo[d]imidazol-5-yl)-3-(3,5-difluoro-4-((E)-4-(((1r,4r)-4-methoxycyclohexyl)amino)but-2-enamido)benzoyl)indolizine-1-carboxamide], the binding rate entry in assay [2] is “A (A binding rate of 80% or more is rated “A”)”. The IC50 in assay [3] came out at 37.6 nM; in the assay with MIA PaCa-2 cells (Homo sapiens, MIA PaCa-2, 72 h), 569 nM.
Regarding `Cn1cnc2c(Cl)c(-c3cccn4c(C(=O)c5cc(F)c(NC(=O)/C=C/CNC(C)(C)C)c(F)c5)ccc34)c(Cl)cc21` (single isomer, unassigned) [Example 20-2, (E)-4-(tert-butylamino)-N-(4-(8-(4,6-dichloro-1-methyl-1H-benzo[d]imidazol-5-yl)indolizine-3-carbonyl)-2,6-difluorophenyl)but-2-enamide], the binding rate entry in assay [2] is on record as “A (A binding rate of 80% or more is rated “A”)”. Also, the IC50 in assay [3] was 33 nM; with MIA PaCa-2 cells it was 59 nM.
In the case of `COc1cc(N2CCCC2=O)cc(Cl)c1-c1cccn2c(C(=O)c3cc(F)c(NC(=O)/C=C/CNC(C)(C)C)c(F)c3)ccc12` [Example 21, (E)-4-(tert-butylamino)-N-(4-(8-(2-chloro-6-methoxy-4-(2-oxopyrrolidin-1-yl)phenyl)indolizine-3-carbonyl)-2,6-difluorophenyl)but-2-enamide], the binding rate result in assay [2] is listed as “A (A binding rate of 80% or more is rated “A”)”. The IC50 in assay [3] was 97 nM; in the assay on MIA PaCa-2 cells (Homo sapiens, MIA PaCa-2, 72 h), 180 nM.
The corresponding values for `Cc1nc2cc(-c3cccn4c(C(=O)c5cc(F)c(NC(=O)/C=C/CN[C@@H]6CCC[C@@H](F)C6)c(F)c5)ccc34)c(C(F)(F)F)cc2n1C` (racemic) [Example 90, (E)-N-(4-(8-(1,2-dimethyl-6-(trifluoromethyl)-1H-benzo[d]imidazol-5-yl)indolizine-3-carbonyl-2,6-difluorophenyl)-4-(((1R,3R)-3-fluorocyclohexyl)amino)but-2-enamide and (E)-N-(4-(8-(1,2-dimethyl-6-(trifluoromethyl)-1H-benzo[d]imidazol-5-yl)indolizine-3-carbonyl)-2,6-difluorophenyl)-4-(((1S,3S)-3-fluorocyclohexyl)amino)but-2-enamide] are “A (A binding rate of 80% or more is rated “A”)”, 97 nM and 200 nM.
The corresponding values for `Cc1nc2cc(-c3cccn4c(C(=O)c5cc(F)c(NC(=O)/C=C/CN[C@H]6CC[C@H](F)CC6)c(F)c5)ccc34)c(C(F)(F)F)cc2n1C` [Example 80, (E)-N-(4-(8-(1,2-dimethyl-6-(trifluoromethyl)-1H-benzo[d]imidazol-5-yl)indolizine-3-carbonyl)-2,6-difluorophenyl)-4-(((1r,4r)-4-fluorocyclohexyl)amino)but-2-enamide] are “A (A binding rate of 80% or more is rated “A”)”, 59 nM and 85 nM.
On the same counts, the results for `CO[C@H]1CC[C@H](NC/C=C/C(=O)Nc2c(F)cc(C(=O)c3cc(CO)c4c(-c5c(C)cc6c(nc(C)n6C)c5Cl)cccn34)cc2F)CC1` [Example 93] are “A (A binding rate of 80% or more is rated “A”)”, 25 nM and 130 nM.
For `Cc1nc2cc(-c3cccn4c(C(=O)c5cc(F)c(NC(=O)/C=C/CNC6CCOC6)c(F)c5)ccc34)c(C(F)(F)F)cc2n1C` (stereo not drawn) [Example 77, (E)-N-(4-(8-(1,2-dimethyl-6-(trifluoromethyl)-1H-benzo[d]imidazol-5-yl)indolizine-3-carbonyl)-2,6-difluorophenyl)-4-((tetrahydrofuran-3-yl)amino)but-2-enamide], the binding rate result in assay [2] is “A (A binding rate of 80% or more is rated “A”)”. Further, the IC50 came to 42 nM in assay [3] and 71 nM in the assay with MIA PaCa-2 cells (Homo sapiens, MIA PaCa-2, 72 h).
The corresponding values for `COCC(C)(C)NC/C=C/C(=O)Nc1c(F)cc(C(=O)c2ccc3c(-c4cc5ncn(C)c5cc4C(F)(F)F)cccn23)cc1F` [Example 8] are “A (A binding rate of 80% or more is rated “A”)”, 89 nM and 130 nM.
On the same counts, the results for `Cc1nc2cc(-c3cccn4c(C(=O)c5cc(F)c(NC(=O)/C=C/CNC6(CO)CCCCC6)c(F)c5)ccc34)c(C(F)(F)F)cc2n1C` [Example 69, (E)-N-(4-(8-(1,2-dimethyl-6-(trifluoromethyl)-1H-benzo[d]imidazol-5-yl)indolizine-3-carbonyl)-2,6-difluorophenyl)-4-((1-(hydroxymethyl)cyclohexyl)amino)but-2-enamide] are “A (A binding rate of 80% or more is rated “A”)”, 87 nM and 340 nM.
For `COc1c(-c2cccn3c(C(=O)c4cc(F)c(NC(=O)/C=C/CNC5(C)CC5)c(F)c4)c(C)nc23)c(C(F)(F)F)cc2c1nc(C)n2C` (single isomer, unassigned) [Example 109-2, (E)-N-(2,6-difluoro-4(8-(4-methoxy-1,2-dimethyl-6-(trifluoromethyl)-1H-benzo[d]imidazol-5-yl)-2-methylimidazo[1,2-a]pyridine-3-carbonyl)phenyl)-4-((1-methylcyclopropyl)amino)but-2-enamide], the binding rate result in assay [2] is “D (a binding rate of 20% or more and less than 40% is rated “D”)”. In addition, the IC50 in assay [3] came out at 1210 nM; with MIA PaCa-2 cells, 784 nM.
With `CO[C@H]1CC[C@H](NC/C=C/C(=O)Nc2c(F)cc(C(=O)c3ccc4c(-c5c(C(F)(F)F)cc6c(nc(C)n6C)c5Cl)cccn34)c(F)c2F)CC1` [Example 104, (E)-N-(4-(8(4-chloro-1,2-dimethyl-6-(trifluoromethyl)-1H-benzo[d]imidazol-5-yl)indolizine-3-carbonyl)-2,3,6-trifluorophenyl)-4-(((1r,4r)-4-methoxycyclohexyl)amino)but-2-enamide], in assay [2], the binding rate result is listed as “A (A binding rate of 80% or more is rated “A”)”. Also, the IC50 in assay [3] came to 78.9 nM; in the assay on MIA PaCa-2 cells (Homo sapiens, MIA PaCa-2, 72 h), 90.4 nM.
With `Cc1nc2cc(-c3cccn4c(C(=O)c5cc(F)c(NC(=O)/C=C/CNC6CCOCC6)c(F)c5)ccc34)c(C(F)(F)F)cc2n1C` [Example 24, (E)-N-(4-(8(1,2-dimethyl-6-(trifluoromethyl)-1H-benzo[d]imidazol-5-yl)indolizine-3-carbonyl)-2,6-difluorophenyl)-4-((tetrahydro-2H-pyran-4-yl)amino)but-2-enamide], the binding rate result in assay [2] is reported as “A (A binding rate of 80% or more is rated “A”)”. The IC50 in assay [3] worked out at 54 nM; in the assay on MIA PaCa-2 cells (Homo sapiens, MIA PaCa-2, 72 h), 54 nM.
With `COc1c(-c2cccn3c(C(=O)c4cc(F)c(NC(=O)/C=C/CN[C@H]5CC[C@H](OC)CC5)c(F)c4)ccc23)c(C(F)(F)F)cc2c1nc(C)n2C` (single isomer, unassigned) [Example 60-1, (E)-N-(2,6-difluoro-4-(8-(4-methoxy-1,2-dimethyl-6-(trifluoromethyl)-1H-benzo[d]imidazol-5-yl)indolizine-3-carbonyl)phenyl)-4-(((1r,4r)-4-methoxycyclohexyl)amino)but-2-enamide], the binding rate entry in assay [2] was “A (A binding rate of 80% or more is rated “A”)”. Further, the IC50 (in assay [3]; in the assay on MIA PaCa-2 cells) was 1600 nM in each case.

Source of the values: US20240246968A1, “SMALL MOLECULE INHIBITORS OF KRAS G12C MUTANT” (Merck Sharp & Dohme LLC, priority 2021, published 2024).
